Source: patent US20050232975A1, “Composition and method to improve quality and yield of meat products” (priority 2002, published 2005)

Experiments:
Format in all cases: in vivo
beef cattle [1] = test: Example II: pH of meat cuts post-harvest after one-time oral administration to beef cattle pre-harvest; conditions: about 6 hours prior to harvest
Procedure: To study the dose/response efficacy of a one-time administration of Vitamin C to beef cattle on the pH of various cuts of meat prepared post-harvest, Applicants' studied four (4) treatments. Those treatments were is administered orally to 4 head of cattle about 6 hours prior to harvest. In a first control treatment, no Vitamin C was administered. In a second treatment, the animal's feed included about 50 grams of a phosphorylated Vitamin C sold in commerce by Roche Vitamins, Inc. under the name Rovimix® Stay-C®. In a third treatment, the animal's feed included about 100 grams of Rovimix® Stay-C®. In a fourth treatment, the animal's feed included about 150 grams of Rovimix® Stay-C®.
In treatments 2, 3, and 4, the phosphorylated Vitamin C was disposed in about 200 grams of grapefruit pulp. That Vitamin C/grapefruit pulp was orally administered to each of the cattle as a one-time bolus. In treatment 1, the control cattle were administered their normal diet.

[2] = Vitamin C in the blood after oral administration to cattle
Procedure: Applicants have learned that oral administration of Vitamin C to cattle results in measurable Vitamin C in the blood in about 45 minutes. These blood levels reach a maximum level between about 45 minutes and about 2 hours. In certain embodiments, Applicants orally administer their composition to a meat-producing animal about 45 minutes prior to harvest. In certain embodiments, Applicants orally administer their composition to a meat-producing animal about 2 hours prior to harvest. In certain embodiments, Applicants orally administer their composition to a meat-producing animal about 6 hours prior to harvest. In certain embodiments, Applicants orally administer their composition to a meat-producing animal about 18 hours prior to harvest. In certain embodiments, Applicants orally administer their composition to a meat-producing animal about 24 hours prior to harvest. In certain embodiments, Applicants orally administer their composition to a meat-producing animal about 48 hours prior to harvest

beef cattle [3] = test: Example I: water retention (drip loss, moisture, free/bound/immobile water) of meat cuts after one-time oral administration to beef cattle pre-harvest; parameters: Total moisture: unit not given here; conditions: about 6 hours prior to harvest
Procedure: To study the dose/response efficacy of a one-time administration of Vitamin C to beef cattle on the water retention of various cuts of meat prepared post-harvest, Applicants' studied four (4) treatments. Those treatments were is administered orally to 4 head of cattle about 6 hours prior to harvest. In a first control treatment, no Vitamin C was administered. In a second treatment, the animal's feed included about 50 grams of a phosphorylated Vitamin C sold in commerce by Roche Vitamins, Inc. under the name Rovimix® Stay-C®. In a third treatment, the animal's feed included about 100 grams of Rovimix® Stay-C®. In a fourth treatment, the animal's feed included about 150 grams of Rovimix® Stay-C®. Table I summarizes the results of this Example I. In treatments 2, 3, and 4, the phosphorylated Vitamin C was disposed in about 200 grams of grapefruit pulp. That Vitamin C/grapefruit pulp was orally administered to each of the cattle as a one-time drench. In treatment 1, the control cattle were administered the normal diet. By “LD,” Applicants mean meat products comprising the Longissimus dorsi muscle. These cuts are sold in commerce as, for example, strip loins. By “SM,” Applicants mean meat products comprising the Semimembranosus/adductor muscle. These cuts are sold in commerce as, for example, top round or inside round. By “TRI,” Applicants mean products comprising the triceps brachii muscle sometimes called the shoulder clod. These cuts are sold in commerce as, for example, beef roasts.

[4] = 0 min after harvest, 50 grams oral
[5] = 0 min after harvest, 100 grams oral
[6] = 0 min after harvest, 150 grams oral
[7] = 30 min after harvest, 50 grams oral
[8] = 30 min after harvest, 100 grams oral
[9] = 30 min after harvest, 150 grams oral
[10] = 60 min after harvest, 50 grams oral
[11] = 60 min after harvest, 100 grams oral
[12] = 60 min after harvest, 150 grams oral
[13] = 90 min after harvest, 50 grams oral
[14] = 90 min after harvest, 100 grams oral
[15] = 90 min after harvest, 150 grams oral
[16] = 120 min after harvest, 50 grams oral
[17] = 120 min after harvest, 100 grams oral
[18] = 120 min after harvest, 150 grams oral
[19] = 150 min after harvest, 50 grams oral
[20] = 150 min after harvest, 100 grams oral
[21] = 150 min after harvest, 150 grams oral
[22] = 180 min after harvest, 50 grams oral
[23] = 180 min after harvest, 100 grams oral
[24] = 180 min after harvest, 150 grams oral

SMILES: O=C1O[C@H]([C@@H](O)CO)C(O)=C1O [Vitamin C, L-ascorbic acid]
- Measured pH Of Beef Roast (beef cattle [1]; [4]): 6.82
- Measured pH Of Strip Loin (beef cattle [1]; [4]): 6.78
- Measured pH Of Top Round Cuts (beef cattle [1]; [4]): 6.70
- Measured pH Of Beef Roast (beef cattle [1]; [5]): 6.73
- Measured pH Of Strip Loin (beef cattle [1]; [5]): 6.78
- Measured pH Of Top Round Cuts (beef cattle [1]; [5]): 6.70
- Measured pH Of Beef Roast (beef cattle [1]; [6]): 6.77
- Measured pH Of Strip Loin (beef cattle [1]; [6]): 6.76
- Measured pH Of Top Round Cuts (beef cattle [1]; [6]): 6.64
- Measured pH Of Beef Roast (beef cattle [1]; [7]): 6.41
- Measured pH Of Strip Loin (beef cattle [1]; [7]): 6.45
- Measured pH Of Top Round Cuts (beef cattle [1]; [7]): 6.46
- Measured pH Of Beef Roast (beef cattle [1]; [8]): 6.43
- Measured pH Of Strip Loin (beef cattle [1]; [8]): 6.45
- Measured pH Of Top Round Cuts (beef cattle [1]; [8]): 6.44
- Measured pH Of Beef Roast (beef cattle [1]; [9]): 6.44
- Measured pH Of Strip Loin (beef cattle [1]; [9]): 6.36
- Measured pH Of Top Round Cuts (beef cattle [1]; [9]): 6.47
- Measured pH Of Beef Roast (beef cattle [1]; [10]): 6.19
- Measured pH Of Strip Loin (beef cattle [1]; [10]): 6.22
- Measured pH Of Top Round Cuts (beef cattle [1]; [10]): 6.12
- Measured pH Of Beef Roast (beef cattle [1]; [11]): 6.19
- Measured pH Of Strip Loin (beef cattle [1]; [11]): 6.25
- Measured pH Of Top Round Cuts (beef cattle [1]; [11]): 6.36
- Measured pH Of Beef Roast (beef cattle [1]; [12]): 6.26
- Measured pH Of Strip Loin (beef cattle [1]; [12]): 6.22
- Measured pH Of Top Round Cuts (beef cattle [1]; [12]): 6.20
- Measured pH Of Beef Roast (beef cattle [1]; [13]): 6.11
- Measured pH Of Strip Loin (beef cattle [1]; [13]): 6.00
- Measured pH Of Top Round Cuts (beef cattle [1]; [13]): 5.84
- Measured pH Of Beef Roast (beef cattle [1]; [14]): 6.05
- Measured pH Of Strip Loin (beef cattle [1]; [14]): 6.02
- Measured pH Of Top Round Cuts (beef cattle [1]; [14]): 6.05
- Measured pH Of Beef Roast (beef cattle [1]; [15]): 6.06
- Measured pH Of Strip Loin (beef cattle [1]; [15]): 6.07
- Measured pH Of Top Round Cuts (beef cattle [1]; [15]): 5.91
- Measured pH Of Beef Roast (beef cattle [1]; [16]): 6.10
- Measured pH Of Strip Loin (beef cattle [1]; [16]): 5.83
- Measured pH Of Top Round Cuts (beef cattle [1]; [16]): 5.75
- Measured pH Of Beef Roast (beef cattle [1]; [17]): 5.96
- Measured pH Of Strip Loin (beef cattle [1]; [17]): 5.78
- Measured pH Of Top Round Cuts (beef cattle [1]; [17]): 5.81
- Measured pH Of Beef Roast (beef cattle [1]; [18]): 5.91
- Measured pH Of Strip Loin (beef cattle [1]; [18]): 5.88
- Measured pH Of Top Round Cuts (beef cattle [1]; [18]): 5.78
- Measured pH Of Beef Roast (beef cattle [1]; [19]): 6.01
- Measured pH Of Strip Loin (beef cattle [1]; [19]): 5.75
- Measured pH Of Top Round Cuts (beef cattle [1]; [19]): 5.60
- Measured pH Of Beef Roast (beef cattle [1]; [20]): 5.89
- Measured pH Of Strip Loin (beef cattle [1]; [20]): 5.76
- Measured pH Of Top Round Cuts (beef cattle [1]; [20]): 5.59
- Measured pH Of Beef Roast (beef cattle [1]; [21]): 5.80
- Measured pH Of Strip Loin (beef cattle [1]; [21]): 5.66
- Measured pH Of Top Round Cuts (beef cattle [1]; [21]): 5.67
- Measured pH Of Beef Roast (beef cattle [1]; [22]): 5.87
- Measured pH Of Strip Loin (beef cattle [1]; [22]): 5.67
- Measured pH Of Top Round Cuts (beef cattle [1]; [22]): 5.53
- Measured pH Of Beef Roast (beef cattle [1]; [23]): 5.83
- Measured pH Of Strip Loin (beef cattle [1]; [23]): 5.59
- Measured pH Of Top Round Cuts (beef cattle [1]; [23]): 5.55
- Measured pH Of Beef Roast (beef cattle [1]; [24]): 5.79
- Measured pH Of Strip Loin (beef cattle [1]; [24]): 5.50
- Measured pH Of Top Round Cuts (beef cattle [1]; [24]): 5.57
- time to measurable Vitamin C in the blood ([2]; bovine, in vivo, po): about 45 minutes
- time at which blood levels reach a maximum level ([2]; oral administration to cattle): about 45 minutes and about 2 hours
- Percent moisture (beef cattle [3]; LD cut, 50 grams oral): 0.7021
- Total moisture (beef cattle [3]; LD cut, 50 grams oral): 384.78
- Total moisture (beef cattle [3]; LD cut, 100 grams oral): 366.33
- Bound water (beef cattle [3]; LD cut, 150 grams oral): 78.6805%
- Free water (beef cattle [3]; LD cut, 150 grams oral): 21.3195%
- Immobile water (beef cattle [3]; LD cut, 150 grams oral): 57.3609%
- Total moisture (beef cattle [3]; LD cut, 150 grams oral): 354.2
- Bound water (beef cattle [3]; SM cut, 50 grams oral): 80.5196%
- Free water (beef cattle [3]; SM cut, 50 grams oral): 19.4804%
- Immobile water (beef cattle [3]; SM cut, 50 grams oral): 61.0392%
- Percent moisture (beef cattle [3]; SM cut, 50 grams oral): 0.6522
- Total moisture (beef cattle [3]; SM cut, 50 grams oral): 353.36
- Bound water (beef cattle [3]; SM cut, 100 grams oral): 83.959%
- Free water (beef cattle [3]; SM cut, 100 grams oral): 16.041%
- Immobile water (beef cattle [3]; SM cut, 100 grams oral): 67.918%
- Total moisture (beef cattle [3]; SM cut, 100 grams oral): 365.7
- Bound water (beef cattle [3]; SM cut, 150 grams oral): 75.6853%
- Free water (beef cattle [3]; SM cut, 150 grams oral): 24.3147%
- Immobile water (beef cattle [3]; SM cut, 150 grams oral): 51.3706%
- Total moisture (beef cattle [3]; SM cut, 150 grams oral): 371.99
- Bound water (beef cattle [3]; TRI cut, 50 grams oral): 77.269%
- Free water (beef cattle [3]; TRI cut, 50 grams oral): 22.731%
- Immobile water (beef cattle [3]; TRI cut, 50 grams oral): 54.5381%
- Percent moisture (beef cattle [3]; TRI cut, 50 grams oral): 0.7019
- Total moisture (beef cattle [3]; TRI cut, 50 grams oral): 376.45
- Total moisture (beef cattle [3]; TRI cut, 100 grams oral): 361.8
- Bound water (beef cattle [3]; TRI cut, 150 grams oral): 81.0096%
- Free water (beef cattle [3]; TRI cut, 150 grams oral): 18.9904%
- Immobile water (beef cattle [3]; TRI cut, 150 grams oral): 62.0192%
- Total moisture (beef cattle [3]; TRI cut, 150 grams oral): 399.11
